Assay results: patent publication US20250382344A1, “Soluble GLP1/GIP/NPY2 Receptor Triple Agonists” (Boehringer Ingelheim International GmH, priority 2024, published 2025)
Like-named read-outs stand apart in the source and are kept apart here.

Tests used:
hGLP1R = biological target: T1, hGLP1R (Homo sapiens, UniProt P43220); experiment: hGLP1R CreLuc assay in 0.5% and 100% plasma (HEK-293 CRE-luciferase reporter cells); format: cell-based; settings: HEK-293 reporter cells
T1 construct: expressed in transfected cells; host or cells: HEK-293 CRE-luciferase reporter cells
T1 sequence (P43220 24-463): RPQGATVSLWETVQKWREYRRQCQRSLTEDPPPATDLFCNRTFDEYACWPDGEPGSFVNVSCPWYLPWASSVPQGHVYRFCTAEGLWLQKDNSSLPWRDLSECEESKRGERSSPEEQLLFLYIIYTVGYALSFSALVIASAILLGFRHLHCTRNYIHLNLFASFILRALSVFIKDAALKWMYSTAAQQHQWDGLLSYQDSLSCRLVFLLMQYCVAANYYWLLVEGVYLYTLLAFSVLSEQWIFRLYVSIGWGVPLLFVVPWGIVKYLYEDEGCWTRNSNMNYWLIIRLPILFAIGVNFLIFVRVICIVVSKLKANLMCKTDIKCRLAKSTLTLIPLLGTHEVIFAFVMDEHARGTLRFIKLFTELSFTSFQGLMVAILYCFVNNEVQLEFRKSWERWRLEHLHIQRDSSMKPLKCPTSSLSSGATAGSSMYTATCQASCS

hGIPR = biological target: T2, hGIPR (Homo sapiens, UniProt P48546); experiment: hGIPR CreLuc assay in 0.5% and 100% plasma (CHO CRE-luciferase reporter cells); format: cell-based
T2 construct: expressed in transfected cells; host or cells: CHO CRE-luciferase reporter cells
T2 sequence (P48546 22-466): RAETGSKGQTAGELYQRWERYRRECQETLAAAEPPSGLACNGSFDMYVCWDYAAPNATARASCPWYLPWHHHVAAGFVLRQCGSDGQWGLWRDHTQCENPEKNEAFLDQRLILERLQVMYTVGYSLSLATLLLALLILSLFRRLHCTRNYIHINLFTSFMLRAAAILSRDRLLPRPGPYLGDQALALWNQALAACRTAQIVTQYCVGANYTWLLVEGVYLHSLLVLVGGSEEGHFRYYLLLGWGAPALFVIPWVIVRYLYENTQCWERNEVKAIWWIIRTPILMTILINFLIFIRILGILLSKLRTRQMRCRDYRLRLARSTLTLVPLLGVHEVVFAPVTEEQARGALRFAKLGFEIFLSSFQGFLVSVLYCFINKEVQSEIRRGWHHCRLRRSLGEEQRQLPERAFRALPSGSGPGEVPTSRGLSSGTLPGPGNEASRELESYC

hNPY2R = biological target: T3, hNPY2R (Homo sapiens, UniProt P49146); experiment: hNPY2R CreLuc assay in 0.5% and 100% plasma (HEK-293 CRE-luciferase reporter cells); format: cell-based; settings: HEK-293 reporter cells
T3 construct: expressed in transfected cells; host or cells: HEK-293 CRE-luciferase reporter cells
T3 sequence (P49146 1-381): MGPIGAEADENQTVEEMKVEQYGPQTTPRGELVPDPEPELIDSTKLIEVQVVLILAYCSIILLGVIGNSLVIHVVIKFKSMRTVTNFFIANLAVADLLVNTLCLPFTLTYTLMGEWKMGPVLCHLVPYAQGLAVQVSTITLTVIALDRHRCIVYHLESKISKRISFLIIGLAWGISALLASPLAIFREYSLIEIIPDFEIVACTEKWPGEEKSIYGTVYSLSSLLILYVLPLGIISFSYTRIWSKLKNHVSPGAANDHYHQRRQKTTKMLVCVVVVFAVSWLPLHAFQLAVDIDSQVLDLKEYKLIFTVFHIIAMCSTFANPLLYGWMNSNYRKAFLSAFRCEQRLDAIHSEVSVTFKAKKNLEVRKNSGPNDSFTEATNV

[1] = Solubility in 0.1 M phosphate buffer at pH 7; format: physicochemical; settings: 0.1 M phosphate buffer at pH 7, 10 mg/mL final peptide concentration, shaking 2 hours at room temperature, peptides as TFA-salts; measured sample pH 6.5-7.0
[2] = Mouse PK after intravenous application; format: in vivo; settings: plasma, male NMRI mice, intravenous 30-60 nmol/kg, non-compartmental analysis
Summary of the method: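 Male NMRI mice (30–40 g) dosed 30-60 nmol/kg by tail vein in 50 mM phosphate buffer pH 7.4/3.5% mannitol. Saphenous EDTA blood sampled from conscious animals up to 56 h; plasma peptide quantified by LC-MS. Parameters from non-compartmental analysis of individual profiles.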

Normal NMRI Mice = experiment: Effect on acute food intake in normal NMRI mice; format: in vivo; settings: male NMRI mice, single subcutaneous dose 100 nmol/kg, 24 hours food intake normalized to vehicle group
Protocol: Male NMRI mice were obtained from Janvier (Janvier Labs, France) or from Charles River (Charles River Research Models & Services Germany GmbH) at the age of 3 weeks. The animals get a microchip (Datamars, Slim Microchip T-SL) for individual identification after delivery. They were housed with 4 mice per cage under a 12/12 dark-light cycle, light off at 3 p.m. Room temperature was controlled to 21° C.+/−1° C. and humidity 60%+/−20%. Mice had ad libitum access to regular rodent chow (KLIBA Nafag 3040 or Altromin 1324, Brogaarden, Denmark) and tap water.
Latest transfer into the HM2-System of MBRose, Denmark (real-time monitoring system of food- and water intake) of the animals 5 days before study start, to allow acclimatization to experimental conditions. As the animals were uniquely identified with the microchips, each individual animal was identified by its own microchip upon entry and exit from the food channel via antennae. Randomization of the mice for each study group (n=8; age earliest 6 weeks old) was based on food intake (middle of last three days 24 h-interval) and bodyweight directly before start of the study. A vehicle treated (50 mM phosphate buffer pH 7.4 with 3.5% mannitol) group was included in each experiment. To have the same nutrition standard for each animal the food access was locked eight hours before dark phase. One hour before night, the animals were once treated subcutaneously with the test peptide. Food intake was reported hourly for a period of 24 hours.

[3] = 100% human plasma, read-out: hGLP1R 100% hP
[4] = 0.5% human plasma, read-out: hGIPR 0.5% hP
[5] = 0.5% human plasma, read-out: hNPY2R 0.5% hP

EC50 (hGLP1R; 0.5% human plasma, read-out: hGLP1R 0.5% hP) [nM]	EC50 (hGLP1R; [3]) [nM]	EC50 (hGIPR; [4]) [nM]	EC50 (hNPY2R; [5]) [nM]	solubility at 2 h [1] [µg/mL]	MRT [2] [h]	EC50 (hGIPR; 100% human plasma, read-out: hGIPR 100% hP) [nM]	EC50 (hNPY2R; 100% human plasma, read-out: hNPY2R 100% hP) [nM]	Structure (SMILES)	Acute Food Intake 24 hours 100 nmol/kg [% CTL] (Normal NMRI Mice)
0.4	2	0.2	9.9	6700	7.5	–	–	CC[C@H](C)[C@H](NC(=O)[C@H](CC(C)C)NC(=O)[C@H](Cc1c[nH]cn1)NC(=O)[C@H](CCCNC(=N)N)NC(=O)[C@@H](NC(=O)[C@H](Cc1ccccc1)NC(=O)[C@H](C)NC(=O)C(C)(C)NC(=O)[C@H](CCC(N)=O)NC(=O)[C@H](C)NC(=O)[C@H](CCC(N)=O)NC(=O)[C@H](CCCCN)NC(=O)[C@H](CCC(=O)O)NC(=O)[C@H](CC(C)C)NC(=O)C(C)(C)NC(=O)[C@@H](NC(=O)[C@H](CO)NC(=O)[C@H](Cc1ccc(O)cc1)NC(=O)[C@H](CC(=O)O)NC(=O)[C@H](CO)NC(=O)[C@@H](NC(=O)[C@H](Cc1ccccc1)NC(=O)[C@@H](NC(=O)CNC(=O)[C@H](CCC(=O)O)NC(=O)C(C)(C)NC(=O)[C@@H](N)Cc1ccc(O)cc1)[C@@H](C)O)[C@@H](C)O)[C@@H](C)CC)C(C)C)C(=O)N[C@@H](CC(N)=O)C(=O)N[C@@H](CCCCNC(=O)[C@@H](N)CCCCNC(=O)CC[C@H](NC(=O)CC[C@H](NC(=O)CC[C@H](NC(=O)CC[C@H](NC(=O)CC[C@H](NC(=O)CC[C@H](NC(=O)CCCCCCCCCCCCCCCCC(=O)O)C(=O)O)C(=O)O)C(=O)O)C(=O)O)C(=O)O)C(=O)O)C(=O)NC(C)(C)C(=O)N[C@H](C(=O)N[C@@H](CCCNC(=N)N)C(=O)N[C@@H](CCC(N)=O)C(=O)N[C@@H](CCCNC(=N)N)C(=O)N[C@@H](Cc1ccc(O)cc1)C(N)=O)[C@@H](C)O [Compound 92, Y-Aib-E-G-T-F-T-S-D-Y-S-I-Aib-L-E-K-Q-A-Q-Aib-A-F-V-R-H-L-I-N-K(1,3)-Aib-T-R-Q-R-Y-NH2.C18DA-gGlu-gGlu-gGlu-gGlu-gGlu-gGlu-eLys(1,2)]	58
–	–	0.2	7.1	9200	12.8	–	–	CC[C@H](C)[C@H](NC(=O)[C@H](CC(C)C)NC(=O)[C@H](Cc1c[nH]cn1)NC(=O)[C@H](CCCNC(=N)N)NC(=O)[C@@H](NC(=O)[C@H](Cc1ccccc1)NC(=O)[C@H](C)NC(=O)C(C)(C)NC(=O)[C@H](CCC(N)=O)NC(=O)[C@H](C)NC(=O)[C@H](CCC(N)=O)NC(=O)[C@H](CCCCN)NC(=O)[C@H](CCC(=O)O)NC(=O)[C@H](CC(C)C)NC(=O)C(C)(C)NC(=O)[C@@H](NC(=O)[C@H](CO)NC(=O)[C@H](Cc1ccc(O)cc1)NC(=O)[C@H](CC(=O)O)NC(=O)[C@H](CO)NC(=O)[C@@H](NC(=O)[C@H](Cc1ccccc1)NC(=O)[C@@H](NC(=O)CNC(=O)[C@H](CCC(=O)O)NC(=O)C(C)(C)NC(=O)[C@@H](N)Cc1ccc(O)cc1)[C@@H](C)O)[C@@H](C)O)[C@@H](C)CC)C(C)C)C(=O)N[C@@H](CC(N)=O)C(=O)N[C@@H](CCCCNC(=O)CCCCCNC(=O)CCCCCNC(=O)CC[C@H](NC(=O)CC[C@H](NC(=O)CC[C@H](NC(=O)CC[C@H](NC(=O)CC[C@H](NC(=O)CCCCCCCCCCCCCCCCCCC(=O)O)C(=O)O)C(=O)O)C(=O)O)C(=O)O)C(=O)O)C(=O)NC(C)(C)C(=O)N[C@H](C(=O)N[C@@H](CCCNC(=N)N)C(=O)N[C@@H](CCC(N)=O)C(=O)N[C@@H](CCCNC(=N)N)C(=O)N[C@@H](Cc1ccc(O)cc1)C(N)=O)[C@@H](C)O [Compound 106, Y-Aib-E-G-T-F-T-S-D-Y-S-I-Aib-L-E-K-Q-A-Q-Aib-A-F-V-R-H-L-I-N-K(1,3)-Aib-T-R-Q-R-Y-NH2.C20DA-gGlu-gGlu-gGlu-gGlu-gGlu-AHX-AHX(1,2)]	60
–	0.3	–	7.2	8900	6.7	0.5	–	CC[C@H](C)[C@H](NC(=O)[C@H](Cc1ccccc1)NC(=O)[C@H](C)NC(=O)C(C)(C)NC(=O)[C@H](CCC(N)=O)NC(=O)[C@H](C)NC(=O)[C@H](CCC(N)=O)NC(=O)[C@H](CCCCN)NC(=O)[C@H](CCC(=O)O)NC(=O)[C@H](CC(C)C)NC(=O)[C@](C)(CC(C)C)NC(=O)[C@@H](NC(=O)[C@H](CO)NC(=O)[C@H](Cc1ccc(O)cc1)NC(=O)[C@H](CC(=O)O)NC(=O)[C@H](CO)NC(=O)[C@@H](NC(=O)[C@H](Cc1ccccc1)NC(=O)[C@@H](NC(=O)CNC(=O)[C@H](CCC(=O)O)NC(=O)C(C)(C)NC(=O)[C@@H](N)Cc1ccc(O)cc1)[C@@H](C)O)[C@@H](C)O)[C@@H](C)CC)C(=O)N[C@@H](CCCNC(=N)N)C(=O)N[C@@H](Cc1c[nH]cn1)C(=O)N[C@@H](CC(C)C)C(=O)N[C@H](C(=O)N[C@@H](CC(N)=O)C(=O)N[C@@H](CCCCNC(=O)[C@@H](N)CCCCNC(=O)CC[C@H](NC(=O)CC[C@H](NC(=O)CC[C@H](NC(=O)CC[C@H](NC(=O)CC[C@H](NC(=O)CC[C@H](NC(=O)CCCCCCCCCCCCCCCCC(=O)O)C(=O)O)C(=O)O)C(=O)O)C(=O)O)C(=O)O)C(=O)O)C(=O)NC(C)(C)C(=O)N[C@H](C(=O)N[C@@H](CCCNC(=N)N)C(=O)N[C@@H](CCC(N)=O)C(=O)N[C@@H](CCCNC(=N)N)C(=O)N[C@@H](Cc1ccc(O)cc1)C(N)=O)[C@@H](C)O)[C@@H](C)CC [Compound 76, Y-Aib-E-G-T-F-T-S-D-Y-S-I-aMeL-L-E-K-Q-A-Q-Aib-A-F-I-R-H-L-I-N-K(1,3)-Aib-T-R-Q-R-Y-NH2.C18DA-gGlu-gGlu-gGlu-gGlu-gGlu-gGlu-eLys(1,2)]	55
–	–	0.4	–	6700	21.2	–	60.8	CC[C@H](C)[C@H](NC(=O)[C@H](CC(C)C)NC(=O)[C@H](Cc1c[nH]cn1)NC(=O)[C@H](CCCNC(=N)N)NC(=O)[C@@H](NC(=O)[C@H](Cc1ccccc1)NC(=O)[C@H](C)NC(=O)C(C)(C)NC(=O)[C@H](CCC(N)=O)NC(=O)[C@H](C)NC(=O)[C@H](CCC(N)=O)NC(=O)[C@H](CCCCN)NC(=O)[C@H](CCC(=O)O)NC(=O)[C@H](CC(C)C)NC(=O)C(C)(C)NC(=O)[C@@H](NC(=O)[C@H](CO)NC(=O)[C@H](Cc1ccc(O)cc1)NC(=O)[C@H](CC(=O)O)NC(=O)[C@H](CO)NC(=O)[C@@H](NC(=O)[C@H](Cc1ccccc1)NC(=O)[C@@H](NC(=O)CNC(=O)[C@H](CCC(=O)O)NC(=O)C(C)(C)NC(=O)[C@@H](N)Cc1ccc(O)cc1)[C@@H](C)O)[C@@H](C)O)[C@@H](C)CC)C(C)C)C(=O)N[C@@H](CC(N)=O)C(=O)N[C@@H](CCCCNC(=O)[C@@H](N)CCCCNC(=O)CC[C@H](NC(=O)CC[C@H](NC(=O)CC[C@H](NC(=O)CC[C@H](NC(=O)CC[C@H](NC(=O)CC[C@H](NC(=O)CCCCCCCCCCCCCCCCCCC(=O)O)C(=O)O)C(=O)O)C(=O)O)C(=O)O)C(=O)O)C(=O)O)C(=O)NC(C)(C)C(=O)N[C@H](C(=O)N[C@@H](CCCNC(=N)N)C(=O)N[C@@H](CCC(N)=O)C(=O)N[C@@H](CCCNC(=N)N)C(=O)N[C@@H](Cc1ccc(O)cc1)C(N)=O)[C@@H](C)O [Compound 125, Y-Aib-E-G-T-F-T-S-D-Y-S-I-Aib-L-E-K-Q-A-Q-Aib-A-F-V-R-H-L-I-N-K(1,3)-Aib-T-R-Q-R-Y-NH2.C20DA-gGlu-gGlu-gGlu-gGlu-gGlu-gGlu-eLys(1,2)]	55
